Literature values in patent publication US20250213580A1, “Improved Thiopurine Formulation and Treatment Methods” (Douglas Pharmaceuticals Ltd, priority 2022, published 2025).
Read-outs that look alike come from different tables or passages of the source.

Tested on: spontaneous colitis in a mouse model
Settings: intra-rectal administration

Structure (SMILES)	effect on colitis (within 14 days, distal colon)	effect on colitis (mid-colon or proximal colon)
S=c1nc[nH]c2nc[nH]c12 [Formulation 6-MP, 3,7-dihydropurine-6-thione]	did not provide any significant improvement in colitis	
Nc1nc(=S)c2[nH]cnc2[nH]1 [Formulation 6-TG, 2-amino-6,7-dihydro-3H-purine-6-thione]	ameliorated spontaneous colitis	no improvement in colitis
